Measured values: ChEMBL document CHEMBL1201862, “PubChem BioAssay data set” (2004)
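How tested: cells in 96-well plates exposed to compound for 48 hours at five concentrations. GI50: concentration for 50% inhibition of growth.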 Active and inactive are the calls of the source. Cut-off read from the data, not from the text of the source: active = GI50 up to about 1.1 µM and inactive = higher.

How the values were obtained:
Assay in all cases: growth of human tumour cells (NCI), 48 h
Hs-578T = system: Hs-578T
UACC-257 = system: UACC-257
SNB-75 = system: SNB-75
SN12C = system: SN12C
NCI-H522 = system: NCI-H522
OVCAR-8 = system: OVCAR-8
CAKI-1 = system: CAKI-1
ACHN = system: ACHN
HOP-92 = system: HOP-92
NCI-H23 = system: NCI-H23
SK-MEL-28 = system: SK-MEL-28
HCT-116 = system: HCT-116
TK-10 = system: TK-10
MDA-MB-435 = system: MDA-MB-435
OVCAR-5 = system: OVCAR-5
A549 = system: A549
SW-620 = system: SW-620
NCI/ADR-RES = system: NCI/ADR-RES
UACC-62 = system: UACC-62
MCF7 = system: MCF7

Measured: GI50

C=C1C2CC3CCC2C(OC(=O)c2ccccc2C(=O)O)C13 (stereo unspecified)
inactive: Hs-578T > 100 µM | UACC-257 > 100 µM | SNB-75 3.1 µM | SN12C > 100 µM | NCI-H522 > 100 µM | OVCAR-8 > 100 µM | CAKI-1 > 100 µM | ACHN > 100 µM | HOP-92 > 100 µM | NCI-H23 > 100 µM | SK-MEL-28 > 100 µM | HCT-116 > 100 µM | TK-10 > 100 µM | MDA-MB-435 > 100 µM | OVCAR-5 > 100 µM | A549 > 100 µM | SW-620 > 100 µM | NCI/ADR-RES > 100 µM | UACC-62 > 100 µM

Cc1cc(C)nc(NC(P(=O)(O)O)P(=O)(O)O)n1
inactive: Hs-578T > 100 µM | UACC-257 > 100 µM | NCI-H522 > 100 µM | MCF7 > 100 µM | OVCAR-8 > 100 µM | CAKI-1 > 100 µM | ACHN > 100 µM | NCI-H23 > 100 µM | HCT-116 > 100 µM | TK-10 > 100 µM | OVCAR-5 > 100 µM | A549 > 100 µM | NCI/ADR-RES > 100 µM | UACC-62 > 100 µM

C[C@H]1[C@H](C)CC[C@]2(C)CC[C@]3(C)C(=C[C@@H](O)[C@@H]4[C@@]5(C)[C@H](O)[C@@H](O)[C@H](O)C(C)(C)[C@@H]5CC[C@]43C)[C@H]12
inactive: Hs-578T > 100 µM | UACC-257 > 100 µM | SN12C > 100 µM | MCF7 > 100 µM | OVCAR-8 > 100 µM | CAKI-1 > 100 µM | ACHN > 100 µM | NCI-H23 > 100 µM | HCT-116 > 100 µM | MDA-MB-435 > 100 µM | OVCAR-5 > 100 µM | A549 > 100 µM | SW-620 > 100 µM | NCI/ADR-RES > 100 µM | UACC-62 > 100 µM

CC(C)(C)OC(=O)/C=C/C(=O)O/C=C/[N+](=O)[O-]
inactive: Hs-578T > 100 µM | UACC-257 > 100 µM | SNB-75 > 100 µM | SN12C > 100 µM | NCI-H522 > 100 µM | MCF7 > 100 µM | OVCAR-8 > 100 µM | CAKI-1 > 100 µM | ACHN > 100 µM | HOP-92 > 100 µM | NCI-H23 > 100 µM | HCT-116 > 100 µM | TK-10 > 100 µM | MDA-MB-435 > 100 µM | OVCAR-5 > 100 µM | A549 > 100 µM | SW-620 > 100 µM | UACC-62 > 100 µM
